Measurements reported in patent publication US20140303198A1, “AGENT FOR INHIBITING EXPRESSION OF NPC1L1 AND/OR LIPG MRNA AND AGENT FOR PREVENTING AND/OR TREATING OBESITY” (KOWA COMPANY, LTD., priority 2011, published 2014).

Experiments:
LIPG mRNA = experiment: DNA microarray gene expression profile in HepG2 cells (Test Example 2), LIPG; format: cell-based, human; settings: 24 hours, treated vs untreated cells
Procedure: (§1) A compound of a test compound group was added to cells of a human hepatocellular carcinoma cell line HepG2, and the cells were then cultured for 24 hours. Thereafter, the gene expression profile was measured using the DNA microarray of Agilent. Specifically, the HepG2 cells were inoculated at a concentration of 2×10^5 cells/well into a 24-well plate, and were then cultured overnight. Thereafter, Compound 2 was dissolved in dimethyl sulfoxide (DMSO) to give concentrations of 1 μM and 10 μM, whereas Anacetrapib was dissolved in DMSO to give a concentration of […]. The thus prepared solution was added to the culture fluid in an amount of 1/1000-fold of the culture fluid. The cells were cultured at 37° C. for 24 hours in a CO2 incubator. Thereafter, 500 μL of ISOGEN (Nippon Gene Co., Ltd., Catalog No. 31-02501) was added to the culture, and total RNA was then extracted. Cy3-labeled cRNA was synthesized from 200 ng of the RNA using Low Input Quick Amp Labeling Kit (Agilent, Catalog No. 5190-2308). The synthesized Cy3-labeled cRNA was hybridized to Whole Human Genome (4×44K) (Agilent, Catalog No. G4110F), using GE Hybridization Buffer HI-RPM (Agilent, Catalog No. 5190-0403). After completion of the hybridization, the DNA microarray was washed with Gene Expression Wash Buffer (Agilent, Catalog No. 5188-5327), and data were then scanned with a scanner (Agilent).
(§2) The analysis was carried out using GeneSpring (Agilent), and the change rate of the expression level of each gene was calculated.
(§3) (Change rate)=(Expression level of each gene in cells treated with compound)[…](Expression level of each gene in cells untreated with compound)

NPC1L1 mRNA = experiment: DNA microarray gene expression profile in HepG2 cells (Test Example 2), NPC1L1; format: cell-based, human; settings: 24 hours, treated vs untreated cells
Procedure: as §1, §2, §3

SMILES | Change rate (fold) of LIPG expression level (LIPG mRNA; 10 μM) | Change rate (fold) of NPC1L1 expression level (NPC1L1 mRNA; 10 μM) | Change rate (fold) of LIPG expression level (LIPG mRNA; 1 μM) | Change rate (fold) of NPC1L1 expression level (NPC1L1 mRNA; 1 μM)
COc1cc(F)c(C(C)C)cc1-c1ccc(C(F)(F)F)cc1CN1C(=O)O[C@H](c2cc(C(F)(F)F)cc(C(F)(F)F)c2)[C@@H]1C [Anacetrapib, (4S,5R)-5-[3,5-bis(trifluoromethyl)phenyl]-3-((4′-fluoro-5′-isopropyl-2′-methoxy-4-(trifluoromethyl)-[1,1′-biphenyl]-2-yl)methyl)-4-methyloxazolidin-2-one, reference compound] | −1.9 fold | −1.5 fold |  | 
CCN(C[C@H]1CC[C@H](CC(=O)O)CC1)c1ccc(C(F)(F)F)cc1CN(c1ncc(OCCS(C)(=O)=O)cn1)[C@@H](C)c1cc(C(F)(F)F)cc(C(F)(F)F)c1 [Compound 2, (S)-(−)-trans-{4-[({2-[({1-[3,5-bis(trifluoromethyl)phenyl]ethyl}{5-[2-(methylsulfonyl)ethoxy]pyrimidin-2-yl}amino)methyl]-4-(trifluoromethyl)phenyl}(ethyl)amino)methyl]cyclohexyl}ac etic acid] | −6.2 fold | −3.1 fold | −2.5 fold | −2.3 fold
